According to patent publication US7998978B2 (Pfizer Inc., priority 2006, dated 2011):
pKi: −log10 of the molar value.

target: T1, JNK1α1 (Homo sapiens, UniProt P45983); assay: Coupled spectrophotometric (PK/LDH) JNK1α1 assay: % inhibition and Ki determination; type: biochemical; conditions: @1 uM; read-out: % Inhibition JNK-1
T1 construct: catalytic domain containing amino acids 1-364 and N-terminal hexahistidine tag; hexahistidine (His6) (N); made in house; host or cells: E. coli BL21 (DE3)
Procedure, shortened: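 Initial rates were taken from the absorbance decrease at 340 nm at 30° C. Ki was fitted with a tight-binding model over 11 concentrations (top 100 μM); single-point inhibition was tested at 1 or 10 μM.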

T1 sequence (P45983 1-364): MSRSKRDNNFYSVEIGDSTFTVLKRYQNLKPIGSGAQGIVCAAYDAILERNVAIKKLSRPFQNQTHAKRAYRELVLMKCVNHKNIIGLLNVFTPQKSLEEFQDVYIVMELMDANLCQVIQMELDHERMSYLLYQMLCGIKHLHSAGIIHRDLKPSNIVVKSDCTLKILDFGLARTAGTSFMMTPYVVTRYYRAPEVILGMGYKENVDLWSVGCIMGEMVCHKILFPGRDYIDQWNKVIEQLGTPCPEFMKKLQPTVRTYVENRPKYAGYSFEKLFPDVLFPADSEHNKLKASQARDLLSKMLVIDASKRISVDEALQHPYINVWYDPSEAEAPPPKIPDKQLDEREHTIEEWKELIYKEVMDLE

inhibition at 1 µM [%]	Structure (SMILES)
17	CN1CCC(Oc2cccc3cnc(N[C@H]4CC[C@H](O)CC4)nc23)CC1 [Example 254, trans-4-({8-[(1-methylpiperidin-4-yl)oxy]quinazolin-2-yl}amino)cyclohexanol]
12	O[C@H]1CC[C@H](Nc2ncc3cccc(OCCN4CCCCC4)c3n2)CC1 [Example 255, trans-4-{[8-(2-piperidin-1-ylethoxy)quinazolin-2-yl]amino}cyclohexanol]
29	COCCOc1cccc2cnc(N[C@H]3CC[C@H](O)CC3)nc12 [Example 256, trans-4-{[8-(2-methoxyethoxy)quinazolin-2-yl]amino}cyclohexanol]

The remaining lines, values behind:

Structure (SMILES)	inhibition at 1 µM [%]
O[C@H]1CC[C@H](Nc2ncc3cccc(OCCN4CCOCC4)c3n2)CC1 [Example 250, trans-4-{[8-(2-morpholin-4-ylethoxy)quinazolin-2-yl]amino}cyclohexanol]	24
CN(C)C(C)(C)COc1cccc2cnc(N[C@H]3CC[C@H](O)CC3)nc12 [Example 251, trans-4-({8-[2-(dimethylamino)-2-methylpropoxy]quinazolin-2-yl}amino)cyclohexanol]	19
CC(C)(C)OCCOc1cccc2cnc(N[C@H]3CC[C@H](O)CC3)nc12 [Example 258, trans-4-{[8-(2-tert-butoxyethoxy)quinazolin-2-yl]amino}cyclohexanol]	30
O=C1NCCN1CCOc1cccc2cnc(N[C@H]3CC[C@H](O)CC3)nc12 [Example 260, 1-[2-({2-[(trans-4-hydroxycyclohexyl)amino]quinazolin-8-yl}oxy)ethyl]imidazolidin-2-one]	34
COc1ccc(COc2cccc3cnc(N[C@H]4CC[C@H](O)CC4)nc23)cc1OC [Example 265, trans-4-({8-[(3,4-dimethoxybenzyl)oxy]quinazolin-2-yl}amino)cyclohexanol]	47
CC(COc1cccc2cnc(N[C@H]3CC[C@H](O)CC3)nc12)N(C)C (stereo partly drawn) [Example 266, trans-4-({8-[2-(dimethylamino)propoxy]quinazolin-2-yl}amino)cyclohexanol]	14
CC1CN(CCOc2cccc3cnc(N[C@H]4CC[C@H](O)CC4)nc23)CC(C)O1 (stereo partly drawn) [Example 267, trans-4-({8-[2-(2,6-dimethylmorpholin-4-yl)ethoxy]quinazolin-2-yl}amino)cyclohexanol]	18
O[C@H]1CC[C@H](Nc2ncc3ccc(OC4CCOCC4)cc3n2)CC1 [Example 268, trans-4-{[7-(tetrahydro-2H-pyran-4-yloxy)quinazolin-2-yl]amino}cyclohexanol]	67
CN(C)C(C)(C)COc1ccc2cnc(N[C@H]3CC[C@H](O)CC3)nc2c1 [Example 269, trans-4-({7-[2-(dimethylamino)-2-methylpropoxy]quinazolin-2-yl}amino)cyclohexanol]	29
CN1CCCC(COc2ccc3cnc(N[C@H]4CC[C@H](O)CC4)nc3c2)C1 (stereo partly drawn) [Example 270, trans-4-({7-[(1-methylpiperidin-3-yl)methoxy]quinazolin-2-yl}amino)cyclohexanol]	40
CN1CCC(Oc2ccc3cnc(N[C@H]4CC[C@H](O)CC4)nc3c2)CC1 [Example 271, trans-4-({7-[(1-methylpiperidin-4-yl)oxy]quinazolin-2-yl}amino)cyclohexanol]	41
COCCOc1ccc2cnc(N[C@H]3CC[C@H](O)CC3)nc2c1 [Example 272, trans-4-{[7-(2-methoxyethoxy)quinazolin-2-yl]amino)cyclohexanol]	63
CN1CCC[C@H]1COc1ccc2cnc(N[C@H]3CC[C@H](O)CC3)nc2c1 [Example 273, trans-4-[(7-{[(2S)-1-methylpyrrolidin-2-yl]methoxy}quinazolin-2-yl)amino]cyclohexanol]	24
CC(CN1CCOCC1)Oc1ccc2cnc(N[C@H]3CC[C@H](O)CC3)nc2c1 (stereo partly drawn) [Example 274, trans-4-{[7-(1-methyl-2-morpholin-4-ylethoxy)quinazolin-2-yl]amino}cyclohexanol]	25
CCOCC(C)Oc1ccc2cnc(N[C@H]3CC[C@H](O)CC3)nc2c1 (stereo partly drawn) [Example 275, trans-4-{[7-(2-ethoxy-1-methylethoxy)quinazolin-2-yl]amino}cyclohexanol]	52
O[C@H]1CC[C@H](Nc2ncc3ccc(OC[C@@H]4CCCN4Cc4ccccc4)cc3n2)CC1 [Example 276, trans-4-[(7-{[(2S)-1-benzylpyrrolidin-2-yl]methoxy}quinazolin-2-yl)amino]cyclohexanol]	22
O[C@H]1CC[C@H](Nc2ncc3ccc(O[C@H]4CCN(Cc5ccccc5)C4)cc3n2)CC1 [Example 277, trans-4-[(7-{[(3S)-1-benzylpyrrolidin-3-yl]oxy}quinazolin-2-yl)amino]cyclohexanol]	46
CCN1CCC(Oc2ccc3cnc(N[C@H]4CC[C@H](O)CC4)nc3c2)C1 (stereo partly drawn) [Example 278, trans-4-({7-[(1-ethylpyrrolidin-3-yl)oxy]quinazolin-2-yl}amino)cyclohexanol]	27
O[C@H]1CC[C@H](Nc2ncc3ccc(OC4CCC(F)(F)CC4)cc3n2)CC1 [Example 279, trans-4-({7-[(4,4-difluorocyclohexyl)oxy]quinazolin-2-yl}amino)cyclohexanol]	54
O=C1CC[C@@H](COc2ccc3cnc(N[C@H]4CC[C@H](O)CC4)nc3c2)N1 [Example 280, (5S)-5-[({2-[(trans-4-hydroxycyclohexyl)amino]quinazolin-7-yl}oxy)methyl]pyrrolidin-2-one]	37

same assay, conditions: @10 uM; read-out: % Inhibition JNK-1

inhibition at 10 µM [%]	Structure (SMILES)
59	CN1CCCCC1COc1cccc2cnc(N[C@H]3CC[C@H](O)CC3)nc12 (stereo partly drawn) [Example 252, trans-4-({8-[(1-methylpiperidin-2-yl)methoxy]quinazolin-2-yl}amino)cyclohexanol]
38	CN1CCCC(COc2cccc3cnc(N[C@H]4CC[C@H](O)CC4)nc23)C1 (stereo partly drawn) [Example 253, trans-4-({8-[(1-methylpiperidin-3-yl)methoxy]quinazolin-2-yl}amino)cyclohexanol]
62	CN1CCC[C@H]1COc1cccc2cnc(N[C@H]3CC[C@H](O)CC3)nc12 [Example 257, trans-4-[(8-{[(2S)-1-methylpyrrolidin-2-yl]methoxy}quinazolin-2-yl)amino]cyclohexanol]
65	CCN1CCC(Oc2cccc3cnc(N[C@H]4CC[C@H](O)CC4)nc23)C1 (stereo partly drawn) [Example 259, trans-4-({8-[(1-ethylpyrrolidin-3-yl)oxy]quinazolin-2-yl}amino)cyclohexanol]
42	CCN(CC)CCOc1cccc2cnc(N[C@H]3CC[C@H](O)CC3)nc12 [Example 261, trans-4-({8-[2-(diethylamino)ethoxy]quinazolin-2-yl}amino)cyclohexanol]
61	CN1CCC(Oc2cccc3cnc(N[C@H]4CC[C@H](O)CC4)nc23)C1 (stereo partly drawn) [Example 262, trans-4-({8-[(1-methylpyrrolidin-3-yl)oxy]quinazolin-2-yl}amino)cyclohexanol]
31	O[C@H]1CC[C@H](Nc2ncc3cccc(OC[C@@H]4CCCN5CCCC[C@H]45)c3n2)CC1 [Example 263, trans-4-({8-[(1R, 9aR)-octahydro-2H-quinolizin-1-ylmethoxy]quinazolin-2-yl}amino)cyctohexanol]
46	CN1CCN(C)C(COc2cccc3cnc(N[C@H]4CC[C@H](O)CC4)nc23)C1 (stereo partly drawn) [Example 264, trans-4-({8-[(1,4-dimethylpiperazin-2-yl)methoxy]quinazolin-2-yl}amino)cyclohexanol]

same assay, conditions: JNK-1

pKi	Structure (SMILES)
7.10	O[C@H]1CC[C@H](Nc2ncc3cccc(O[C@H]4CCCN(Cc5ccccn5)C4)c3n2)CC1 [Example 240, trans-4-[(8-{[1-(pyridin-2-ylmethyl)piperidin-3-yl]oxy}quinazolin-2-yl)amino]cyclohexanol]
6.95	O[C@H]1CC[C@H](Nc2ncc3cccc(OC4CCC4)c3n2)CC1 [Example 242, trans-4-{[8-(cyclobutyloxy)quinazolin-2-yl]amino}cyclohexanol]
6.63	O[C@H]1CC[C@H](Nc2ncc3cccc(OCC4CCCCO4)c3n2)CC1 (stereo partly drawn) [Example 243, trans-4-{[8-(tetrahydro-2H-pyran-2-ylmethoxy)quinazolin-2-yl]amino}cyclohexanol]
6.63	O[C@H]1CC[C@H](Nc2ncc3cccc(OCC(F)(F)F)c3n2)CC1 [Example 244, trans-4-{[8-(2,2,2-trifluoroethoxy)quinazolin-2-yl]amino}cyclohexanol]
6.59	CCC1(COc2cccc3cnc(N[C@H]4CC[C@H](O)CC4)nc23)COC1 [Example 246, trans-4-({8-[(3-ethyloxetan-3-yl)methoxy]quinazolin-2-yl}amino)cyclohexanol]
6.56	O[C@H]1CC[C@H](Nc2ncc3cccc(OC4CCN(c5ccncn5)CC4)c3n2)CC1 [Example 247, trans-4-({8-[(1-pyrimidin-4-ylpiperidin-4-yl)oxy]quinazolin-2-yl}amino)cyclohexanol]
6.49	O[C@H]1CC[C@H](Nc2ncc3cccc(OCC4CCOC4)c3n2)CC1 (stereo partly drawn) [Example 249, trans-4-{[8-(tetrahydrofuran-3-ylmethoxy)quinazolin-2-yl]amino}cyclohexanol]

Further lines, the molecule ahead of its results:

Structure (SMILES)	pKi
COC(C)(C)CCOc1cccc2cnc(N[C@H]3CC[C@H](O)CC3)nc12 [Example 241, trans-4-{[8-(3-methoxy-3-methylbutoxy)quinazolin-2-yl]amino}cyclohexanol]	7.01
O[C@H]1CC[C@H](Nc2ncc3cccc(OCCc4cn[nH]c4)c3n2)CC1 [Example 245, trans-4-({8-[2-(1H-pyrazol-4-yl)ethoxy]quinazolin-2-yl}amino)cyclohexanol]	6.62
O[C@H]1CC[C@H](Nc2ncc3cccc(OCc4ccccn4)c3n2)CC1 [Example 248, trans-4-{[8-(pyridin-2-ylmethoxy)quinazolin-2-yl]amino}cyclohexanol]	6.52
